Literature values, collected in patent US20090215676A1, “Method of treatment” (priority 2005, published 2009).
Where two headings read alike, the source gives them in different places.

How the values were obtained:
IGF-I [1] = conditions: once weekly pegvisomant dose of 80 mg, monotherapy
IGF-I [2] = conditions: alternate day administration, monotherapy; of 10 patients
IGF-I levels = conditions: for daily pegvisomant dose needed: former pegvisomant registration studies
insulin sensitivity = conditions: in vivo
GH and IGF-1 levels = conditions: for acromegalic patients in whom GH and IGF-1 levels are reduced: human, in vivo; for share of responding patients whose GH and IGF-1 levels are reduced to normal levels (full responders): of the approximately 90% who respond

| Compound | share of patients with IGF-I normalized (IGF-I [1]) | effect on tumor growth (tumor size; clinical experience) | effect on mean tumor size (tumor size; follow-up with pegvisomant monotherapy to date) | patients in whom the regimen failed to maintain IGF-I within the age-adjusted normal range (IGF-I [2]) [patients] | daily pegvisomant dose needed (IGF-I levels; one subject) [mg] | daily dose needed by the average patient (IGF-I levels; pegvisomant monotherapy) | acromegalics with IGF-I levels normalized (IGF-I levels; pegvisomant monotherapy, listed as PEGVISOMANT) | acromegalics with IGF-I levels normalized (IGF-I levels; pegvisomant monotherapy, listed as Pegvisomant) [%] | daily pegvisomant dose needed (IGF-I levels; two subjects) [mg] | effect on insulin sensitivity (insulin sensitivity) | acromegalic patients in whom GH and IGF-1 levels are reduced (GH and IGF-1 levels) | share of responding patients whose GH and IGF-1 levels are reduced to normal levels (full responders) (GH and IGF-1 levels) |
| --- | --- | --- | --- | --- | --- | --- | --- | --- | --- | --- | --- | --- |
| pegvisomant | less than one-third | does not prevent tumor growth in some patients | do not indicate that pegvisomant increases mean tumor size | 7 | 35 | approximately 20 mg | 75%-95% | > 90 | 40 | improves insulin sensitivity as compared to somatostatin analogues |  |  |
| CC(C)[C@@H]1NC(=O)[C@H](CCCCN)NC(=O)[C@@H](Cc2c[nH]c3ccccc23)NC(=O)[C@H](Cc2ccc(O)cc2)NC(=O)[C@@H](NC(=O)[C@H](N)Cc2ccc3ccccc3c2)CSSC[C@@H](C(=O)N[C@H](C(N)=O)[C@@H](C)O)NC1=O [LANREOTIDE] |  |  |  |  |  |  |  |  |  |  | approximately 90% | one-half to two-thirds |
| C[C@@H](O)[C@@H]1NC(=O)[C@H](CCCCN)NC(=O)[C@@H](Cc2c[nH]c3ccccc23)NC(=O)[C@H](Cc2ccccc2)NC(=O)[C@@H](NC(=O)[C@H](N)Cc2ccccc2)CSSC[C@@H](C(=O)N[C@H](CO)[C@@H](C)O)NC1=O [OCTREOTIDE] |  |  |  |  |  |  |  |  |  |  | approximately 90% | one-half to two-thirds |
